Like-named read-outs stand apart in the source and are kept apart here.
Assays:
[1] = Erosion test: weight loss of HAP disks after exposure to citric acid; settings: for protection of HAP: 100 μg/ml in Tris-Tween, 3 hrs
Protocol: Dental enamel consists largely of hydroxyapatite crystals (Ca10(PO4)6(OH)2. Sintered at high temperatures, hydroxyapatite discs can be produced with physical characteristics (e.g. hardness and density) resembling those of enamel (Anderson et al, 2004), which can be used to determine erosive properties of solutions (Jensdottir et al, 2005) by measuring weight loss from hydroxyapatite after immersion in an erosive (acidic) solution.
Hydroxyapatite discs, sintered at 1250° C. and with a relative density of 98% were obtained from Swerea, Stockholm, Sweden. The lateral and bottom surfaces of the discs were covered with nail polish so that one side remained uncoated. Next, discs were cleaned by sanding with sand paper (3M734 P600) rinsed with demineralised water, dried at 37° C. overnight and weighed to determine the initial mass. Hydroxyapatite discs were placed in the wells of 12 well cell culture plates (Greiner bio-one, Frickenhausen, Germany), to which was added 1.5 ml of phytosphingosine (PHS in various concentrations dissolved in saliva buffer (2 mM potassium phosphate, 50 mM KCl, 1 mM CaCl2, 0.1 mM MgCl2, pH 6.8) under gently shaking for 3 hours at 37° C. After three times rinsing with 4 ml saliva buffer to remove unbound PHS, discs were placed in new wells with 4 ml of 0.1 M citric acid (pH=3.0). After 30 minutes citric acid was pipetted off and discs were rinsed 3 times with 4 ml demineralized water, dried overnight at 37° C. and weighted. The difference in weight before and after the erosive treatment was taken as a measure for erosion. The experiments were conducted in triplicate and were repeated at least two times. Formation of saliva pellicle on HAP discs was achieved as follows: saliva was collected without conscious stimulation, as described previously (Navazesh, 1993). Saliva was cleared from cellular debris by centrifugation at 10,000 g for 10 minutes. The supernatant (HWS) was collected and used for coating HAP disks with a salivary pellicle. For this purpose, HAP disks were incubated with 4 ml HWS at 37° C. After 3 hrs, disks were rinsed 3 times with distilled water to remove unbound protein. Subsequently, the protective effect of PHS on saliva-coated HAP was tested as described above for bare HAP.
Protection of HAP against erosion was determined essentially as described by Jensdottir et al, (2005), by measuring weight loss from HAP disks before and after immersion in an erosive (acidic) solution using a Sartorius GD503 analytical precision scale. For the erosion experiments, the lateral and bottom surfaces of the disks were covered with nail polish leaving the circular upper surface uncoated. Next, disks were cleaned by sanding with fine sand paper (3M734 P600), rinsed with demineralised water, dried at 37° C. overnight and weighed to determine the initial mass. Stock solutions of lipids were prepared in ethanol to a concentration of 5 mg/ml. These stock solutions were diluted further to the desired concentration in the working buffer. Working solutions of PHS were prepared in saliva buffer (2 mM potassium phosphate, 50 mM KCl, 1 mM CaCl2, 0.1 mM MgCl2, pH 6.8) or in 20 mM Tris (pH 6.8) supplemented with 0.1% Tween 20 (Tris-Tween). HAP disks were placed in the wells of 12 well cell culture plates (Greiner bio-one, Frickenhausen, Germany), to which 1.5 ml of the lipid solutions was added and incubated under gentle shaking for 3 hours at 37° C. After three times rinsing with 4 ml of the incubation buffer to remove unbound lipid, disks were incubated with 4 ml of 0.1 M citric acid (pH=3.0). […] The difference in weight before and after the erosive treatment was taken as a measure for erosion. All incubations were conducted in triplicate and each experiment was repeated at least two times.

Streptococcus mutans = experiment: Antifouling activity of sphingolipids coated on HA discs; type: cell-based; settings: HA discs coated with 100 μg/ml lipid; 2 hr with bacteria
Protocol: (§1) Six different sphingolipids including PHS, PHS phosphate, Sphingosine, Sphinganine, Stearoyl PHS and Sphingomyelin were tested for their antifouling properties against two primary colonizers i.e.—Streptococcus sanguinis and Streptococcus gordonii and a late colonizer, Streptococcus mutans.
(§2) HA discs were incubated 0/N with 100 μg/ml lipid at 37° C. Subsequently, the discs were washed to remove unbound lipid. Then the lipid-coated HA discs were incubated for 2 hr with 1.5 ml of ˜10^7 cells/ml. After washing, the adherent bacterial cells were desorbed by sonication and transferred to agar plates. After 48 hr CFUs were counted.

Streptococcus gordonii = experiment: as above; type: cell-based; settings: HA discs coated with 100 μg/ml lipid; 2 hr with bacteria
Protocol: as §1, §2

Solubility of PHS = type: physicochemical
[2] = in saliva buffer; cited from earlier work
[3] = PHS adsorption to HAP (OPA fluorimetry)
Protocol: PHS was dissolved in concentrations ranging from 0 to 500 μg/ml in 20 mM Tris buffer supplemented with 0.1% Tween 20 (pH 6.8) (Tris-Tween). Tween 20 was added to keep PHS in solution. Disks were incubated with the PHS solutions for 18 h, and then rinsed with demin water (3 times) to remove unbound PHS. HAP bound PHS was extracted by incubation with 1.5 ml methanol for 90 minutes. Since nail polish dissolved in methanol, in the binding experiments HAP disks were used without nail polish. It was verified that no PHS was adsorbed to the plastic, by conducting control incubations without disks. After evaporation, the residue was dissolved in 250 μl of methanol. To 100 of this solution 25 μl ortho-phtaldialdehyde reagent (OPA, Sigma-Aldrich) to enable fluorimetric quantification of bound PHS. Fluorescence was measured on a Fluostar microplate reader at excitation/emission wavelengths of 380 nm/450 nm. Absolute quantities were determined by reference to a standard curve of PHS. All incubations were conducted in triplicate and the experiment was repeated two times.

Streptococcus sanguinis = experiment: Antifouling activity of sphingolipids coated on HA discs; type: cell-based; settings: HA discs coated with 100 μg/ml lipid; 2 hr with bacteria
Protocol: as §1, §2

For “4-hydroxysphinganine-1-phosphate [PHS phosphate]”, which “protection against subsequent erosive attack by citric acid” value ([1]; 200 μg/ml in saliva buffer) is on record?
Its value is “did not afford protection”.

Which “protection of HAP” value ([1]; 0.1 M citric acid 30 minutes) does the source give for `CCCCCCCCCCCCCCC(O)[C@@H](O)[C@@H](N)COP(=O)(O)O` (stereo partly drawn) [PHS phosphate, 4-hydroxysphinganine-1-phosphate] here?
The value was “protection that was comparable to that by PHS”.

And the “antifouling activity (reduction of adherent bacteria)” value (Streptococcus mutans)?
Its value is about 2 log CFU/ml.

What about the “reduction in bacterial adherence” value (Streptococcus gordonii) of the same compound?
Its value is 1.5 log values.

Which solubility (Solubility of PHS; in Tris-Tween, concentration before and after centrifugation 10 minutes 10,000 g) does the source give for `CCCCCCCCCCCCCC[C@@H](O)[C@@H](O)[C@@H](N)CO` [PHS, phytosphingosine] here?
The solubility was “completely soluble”.

And the solubility (Solubility of PHS; in water)?
Its solubility is “moderately soluble”.

And the “effect on the pH of citric acid” value [1]?
Its value is “no effect”.

And the “protection when present in the erosive fluid” value ([1]; 0.1 M citric acid in the presence of 100 ug/ml PHS, 30 minutes, untreated HAP disks)?
The value was “protects against erosion even with untreated HAP disks”.

What about the “duration of the protective effect” value ([1]; 1 hour exposure to citric acid, 50 μg/ml PHS (FIG. 3)) of the same compound?
Its value is “still protected”.

And the “protection of disks covered with a salivary pellicle (CHWS) versus controls” value ([1]; 20 hrs CHWS, then 100 μg/ml PHS in TrisT 3 hrs, 0.1 M citric acid 30 minutes)?
The value was “protected to the same extent”.

And the “protection against dissolution by citric acid relative to the control disks” value ([1]; HAP discs pretreated, then 0.1 M citric acid (pH=3) for 30 minutes)?
Its value is “more than 80%”.

And the “PHS concentration at which virtually maximal protection was achieved” value ([1]; HAP disks incubated 3 hrs with PHS, citric acid 30 minutes)?
Its value is over 20 µg/mL.

What about the “protection of saliva-coated HAP versus uncoated HAP” value ([1]; HAP disks preincubated with human saliva (salivary pellicle)) of the same compound?
The value was “to the same extent”.

What about the “protection at 500 and 50 μg/ml” value ([1]; PHS 500 and 50 μg/ml) of the same compound?
The value was “comparable protection”.

And the “protection at 5 ug/ml” value ([1]; PHS concentration lowered to 5 ug/ml)?
The value was “steep decrease in protection”.

What about the “protection with PHS dissolved in Tris-Tween compared with saliva buffer” value ([1]; PHS dissolved in Tris-Tween) of the same compound?
Its value is “essentially the same protection”.

What about the “less weight loss compared to the untreated control disks” value ([1]; PHS in saliva buffer, subsequent erosive challenge 0.1 M citric acid (pH=3) 30 minutes) of the same compound?
The value was 70-80%.

And the protection by pre-treatment ([1]; pretreated 100 ug/ml 3 hours, 0.1 M citric acid (pH=3.0) 30 minutes)?
The protection by pre-treatment was “protects against the erosive effects of citric acid”.

What about the “effect of solvent used for stock solution on protection” value ([1]; stock 5 mg/ml in DMSO or ethanol, with or without sonication, 3 hr incubation) of the same compound?
Its value is “No difference”.

And the “binding level at which protection is maximal” value ([1]; submaximal binding, 0.1 M citric acid (pH 3.0) 30 minutes)?
The value was “approximately 6 μg per disk”.

And the solubility [2]?
The solubility was “poorly soluble”.

And the “PHS adsorbed onto the surface of the disk” value ([3]; at maximal adsorption (60 μg/ml and higher), Tris-Tween)?
Its value is “approximately 12 μg”.

And the “time to equilibrium of the initial fast phase of binding” value ([3]; biphasic time course, gradual increase over the next 15 hrs)?
Its value is at most 1 h.

What about the “PHS concentration at which maximal adsorption occurred” value ([3]; in Tris-Tween) of the same compound?
Its value is at least 60 µg/mL.

What about the “adsorption to saliva-incubated HAP disks compared to control” value ([3]; overnight incubation with saliva, then PHS, control saliva buffer) of the same compound?
The value was “even higher amounts of PHS adsorbed”.

And the “share of the maximal adsorption level reached” value ([3]; within 5 minutes)?
The value was over 65%.

And the amount adsorbed ([3]; within one minute, fixed PHS concentration)?
The amount adsorbed was “substantial amount”.

Which results are given for `CCCCCCCCCCCCCCC[C@@H](O)[C@@H](N)CO` [Sphinganine]?
protection of HAP ([1]; 0.1 M citric acid 30 minutes): protection that was comparable to that by PHS; effect of phosphate in the buffer on efficacy ([1]; FIG. 8): more effective when provided in a buffer not containing, or containing a minimal amount of, phosphate; protection against citric acid ([1]; used in a Tris buffer (FIG. 8)): protected against citric acid; protection against citric acid ([1]; used in a buffer containing phosphate ions): not when used in a buffer containing phosphate ions; reduction in bacterial adherence (Streptococcus sanguinis): 2 log value; reduction of adherent bacteria (Streptococcus mutans): 3 log; reduction in bacterial adherence (Streptococcus gordonii): 1.5 log values

Which “antifouling activity (reduction of adherent bacteria)” value (Streptococcus mutans) does the source give for `CCCCCCCCCCCCCCCCCC(=O)N[C@@H](CO)[C@H](O)C(O)CCCCCCCCCCCCCC` (stereo partly drawn) [Stearoyl PHS, N-stearoyl 4-4-hydroxysphinganine] here?
Its value is about 2 log CFU/ml.

For `CCCCCCCCCCCCC/C=C/[C@@H](O)[C@@H](N)CO` [sphingosine], which “protection of HAP” value ([1]; 0.1 M citric acid 30 minutes) is on record?
Its value is “protection that was comparable to that by PHS”.

Which “protection of HAP” value ([1]; 0.1 M citric acid 30 minutes) does the source give for “Di-myroistyl phosphatidylcholine [reference compound]” here?
The value was “did not protect HAP”.

For sphingomyelin [reference compound], which “protection of HAP” value ([1]; 0.1 M citric acid 30 minutes) is on record?
The value was “did not protect HAP”.

What about the “reduction in bacterial adherence” value (Streptococcus sanguinis) of the same compound?
The value was 1 log value.

Source: US11944701B2, “Protection of materials by sphingosine based compounds” (STICHTING VU, priority 2012, dated 2024)
